The results in this text go back to EP2359816B1, “Aripiprazole formulations” (Arven Ilac Sanayi ve Ticaret A.S., priority 2010, dated 2011).

A short description of this series: physchem. In kind it is physicochemical. From the text:
The following results were obtained in our solubility study of aripiprazole monohydrate.

With `O=C1CCc2ccc(OCCCCN3CCN(c4cccc(Cl)c4Cl)CC3)cc2N1` [aripiprazole monohydrate, 7-[4-[4-(2,3-dichlorophenyl)-1-piperazinyl]butoxy]-3,4-dihydrocarbostyril], the dissolved was 25 mg per 250 mL (pH 1.2 (0.1 N NCl)), 9.75 mg per 250 mL (pH 1.2 (USP buffer)), 8.25 mg per 250 mL (pH 4.5) and “not dissolved” (pH 6.8). Further, the “Cmax (mg/250 mL) (Aripiprazole)” value is, setting by setting: (pH 4.5) 8.25 mg/250 mL; (pH 6.8) 0 mg/250 mL. For the same compound, the solubility (commonly the concentration that dissolves in the medium under given conditions) (pH 4.5, aqueous buffer, Maximum Solubility (Cmax mg/mL)) was 33 µg/mL. For the setting “pH 6.8”, the “Maximum Solubility (Cmax mg/mL)” value was determined as 0 mg/mL.
